Test results reported in patent publication US12570655B2, “Cysteine covalent modifiers of AKT1 and uses thereof” (Terremoto Biosciences, Inc., priority 2023, dated 2026).
Where two headings read alike, the source gives them in different places.

Legend:
Type in all cases: cell-based
AKT1 E17K = target: T1, AKT1 E17K (Homo sapiens, UniProt P31749, E17K); test: Live cell AKT1 E17K target engagement by NanoBRET competitive probe displacement; conditions: HEK293 cells transfected with kinase-NanoLuciferase fusion, 2 h at 37° C.
T1 construct: expressed in transfected cells; host or cells: HEK293
T1 sequence (P31749 whole entry E17K, the tested form may be a part): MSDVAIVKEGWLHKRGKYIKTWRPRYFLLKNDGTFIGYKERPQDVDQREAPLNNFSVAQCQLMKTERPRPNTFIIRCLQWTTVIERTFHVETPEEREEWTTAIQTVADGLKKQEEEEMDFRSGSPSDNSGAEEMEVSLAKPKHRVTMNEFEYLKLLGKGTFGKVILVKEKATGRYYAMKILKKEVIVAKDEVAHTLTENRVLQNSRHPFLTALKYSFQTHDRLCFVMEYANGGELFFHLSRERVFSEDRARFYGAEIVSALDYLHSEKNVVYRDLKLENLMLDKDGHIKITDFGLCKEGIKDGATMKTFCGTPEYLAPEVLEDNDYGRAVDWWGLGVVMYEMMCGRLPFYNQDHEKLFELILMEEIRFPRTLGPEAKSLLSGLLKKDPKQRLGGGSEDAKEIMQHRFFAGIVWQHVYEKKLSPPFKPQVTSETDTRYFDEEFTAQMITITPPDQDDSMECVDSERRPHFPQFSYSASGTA
Experimental: (§1) Determining Live Cell AKT1 E17K, AKT1 WT, and AKT2 Target Engagement by NanoBRET Competitive Probe Displacement.
(§2) Live cell target engagement assays were performed as described (Vasta, J. D. et al. Cell Chem Biol 2018, 25(11), 206-214). Briefly, HEK293 cells were transfected with plasmids encoding kinase-NanoLuciferase fusion proteins overnight. Cells were then treated with serial dilutions of compound and an ˜EC50 concentration of fluorescently-tagged ATP-competitive tracer (Promega). After incubation for 2 h at 37° C., luciferase substrate and extracellular luciferase inhibitor were added to all wells, and luminescent intensity at 460 nm and 600 nm were measured on a multimode plate-reader. The ratio of E600/E460 was calculated to give the tracer engagement signal (BRET). IC50 values were calculated by fitting BRET values to a log(inhibitor) vs. response Hill equation.

[1] = test system: LAPC4 prostate cancer cells; test: Antiproliferative effects in LAPC4 cells (CellTiter Glo); conditions: LAPC4 cells (AKT1 E17K allele), read-out: LAPC4 proliferation IC50
Experimental: Antiproliferative Effects in LAPC4 Cells.
LAPC4 prostate cancer cells (Klein, K. A. et al. Nat Med 1997, 3, 402-408), which express the AKT1 E17K allele, were grown in IMDM media (Hyclone) supplemented with 12% FBS+1% P/S. To assess compound effects on growth, 1,000 cells/well were seeded in 384 well assay plates, incubated with compound dilutions dissolved in DMSO. After 72 h, intracellular ATP content was assessed with CellTiter Glo reagent (Promega) according to the manufacturer's instructions. IC50 values were calculated by fitting luminescence values to a log(inhibitor) vs. response Hill equation.

AKT2 = target: T2, AKT2 (Homo sapiens, UniProt P31751); test: Live cell AKT2 target engagement by NanoBRET competitive probe displacement; conditions: HEK293 cells transfected with kinase-NanoLuciferase fusion, 2 h at 37° C.
T2 construct: expressed in transfected cells; host or cells: HEK293
T2 sequence (P31751 whole entry, the tested form may be a part): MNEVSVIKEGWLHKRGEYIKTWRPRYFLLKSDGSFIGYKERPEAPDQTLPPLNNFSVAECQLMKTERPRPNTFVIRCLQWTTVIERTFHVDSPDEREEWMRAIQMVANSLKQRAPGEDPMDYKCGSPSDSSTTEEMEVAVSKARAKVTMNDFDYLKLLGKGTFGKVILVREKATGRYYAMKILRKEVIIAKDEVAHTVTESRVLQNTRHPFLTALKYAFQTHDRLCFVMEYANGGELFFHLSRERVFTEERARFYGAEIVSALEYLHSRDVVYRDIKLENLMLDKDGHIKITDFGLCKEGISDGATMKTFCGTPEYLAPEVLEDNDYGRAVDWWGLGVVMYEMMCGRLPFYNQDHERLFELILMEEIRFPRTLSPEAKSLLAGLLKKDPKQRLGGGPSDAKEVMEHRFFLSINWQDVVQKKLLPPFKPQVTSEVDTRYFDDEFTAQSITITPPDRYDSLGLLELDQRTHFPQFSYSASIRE
Experimental: as §1, §2

AKT1 WT = target: T3, AKT1 WT (Homo sapiens, UniProt P31749); test: Live cell AKT1 WT target engagement by NanoBRET competitive probe displacement; conditions: HEK293 cells transfected with kinase-NanoLuciferase fusion, 2 h at 37° C.
T3 construct: expressed in transfected cells; host or cells: HEK293
T3 sequence (P31749 whole entry, the tested form may be a part): as the sequence (P31749 whole entry E17K, the tested form may be a part) above, with K17E counted along it
Experimental: as §1, §2

| Structure (SMILES) | IC50 (AKT1 E17K) [µM] | IC50 ([1]; 72 h) [µM] | IC50 (AKT2) [µM] | IC50 ([1]; Homo sapiens, LAPC4, 72 h) [µM] | IC50 (AKT1 WT) [µM] |
| --- | --- | --- | --- | --- | --- |
| C=CC(=O)N1C[C@H]2COC[C@@H](C1)C2N[C@H]1CCc2cc(-n3c(-c4cccnc4N)nc4ccc(C5CC5)nc43)ccc21 (single isomer, unassigned) [Example 172, 1-((1R,5S,9*)-9-(((S)-5-(2-(2-aminopyridin-3-yl)-5-cyclopropyl-3H-imidazo[4,5-b]pyridin-3-yl)-2,3-dihydro-1H-inden-1-yl)amino)-3-oxa-7-azabicyclo[3.3.1]nonan-7-yl)prop-2-en-1-one] | 0.0509 | 0.51 | 0.211 |  |  |
| C=CC(=O)N1CCC(N[C@@H]2c3ccc(-n4c(-c5cccnc5N)nc5ccc(C6CC6)nc54)cc3CC2F)CC1 (single isomer, unassigned) [Example 203, 1-(4-(((1R,2*)-5-(2-(2-aminopyridin-3-yl)-5-cyclopropyl-3H-imidazo[4,5-b]pyridin-3-yl)-2-fluoro-2,3-dihydro-1H-inden-1-yl)amino)piperidin-1-yl)prop-2-en-1-one] | 0.0322 | 1.76 | 0.874 |  |  |
| C=CC(=O)N1CCC(N[C@@H]2c3ccc(-n4c(-c5ccccc5)nc5ccc(-n6cccn6)nc54)cc3CC2F)CC1 (single isomer, unassigned) [Example 249, 1-(4-(((1R,2*)-2-fluoro-5-(2-phenyl-5-(1H-pyrazol-1-yl)-3H-imidazo[4,5-b]pyridin-3-yl)-2,3-dihydro-1H-inden-1-yl)amino)piperidin-1-yl)prop-2-en-1-one] | 0.0126 |  | 0.143 | 0.614 |  |
| C=CC(=O)N1CCC(N[C@@H]2c3ccc(-n4c(-c5ccccc5)nc5ccc(-n6cccn6)nc54)cc3CC2F)CC1 (single isomer, unassigned) [Example 250, 1-(4-(((1R,2*)-2-fluoro-5-(2-phenyl-5-(1H-pyrazol-1-yl)-3H-imidazo[4,5-b]pyridin-3-yl)-2,3-dihydro-1H-inden-1-yl)amino)piperidin-1-yl)prop-2-en-1-one] | 0.0147 | 0.559 | 0.134 |  |  |
| C=CC(=O)N1CCC(N[C@@H]2c3ccc(-n4c(-c5ccccc5F)nc5ccc(-n6cccn6)nc54)cc3CC2F)C[C@H]1C (single isomer, unassigned) [Example 316, 1-((2R,4*)-4-(((1R,2*)-2-fluoro-5-(2-(2-fluorophenyl)-5-(1H-pyrazol-1-yl)-3H-imidazo[4,5-b]pyridin-3-yl)-2,3-dihydro-1H-inden-1-yl)amino)-2-methylpiperidin-1-yl)prop-2-en-1-one] | 0.0192 | 0.54 | 0.112 |  |  |
| C=CC(=O)N1CCC(N[C@@H]2c3ccc(-n4c(-c5ccccc5F)nc5ccc(-n6cccn6)nc54)cc3CC2F)C[C@H]1C (single isomer, unassigned) [Example 318, 1-((2R,4*)-4-(((1R,2*)-2-fluoro-5-(2-(2-fluorophenyl)-5-(1H-pyrazol-1-yl)-3H-imidazo[4,5-b]pyridin-3-yl)-2,3-dihydro-1H-inden-1-yl)amino)-2-methylpiperidin-1-yl)prop-2-en-1-one] | 0.0297 | 0.626 | 0.111 |  |  |
| C=CC(=O)N1CCC(N[C@@H]2c3ccc(-n4c(-c5ccccc5)nc5ccc(-n6cccn6)nc54)cc3CC2F)CC1C(F)F (single isomer, unassigned) [Example 328, 1-((2*,4*)-2-(difluoromethyl)-4-(((1R,2*)-2-fluoro-5-(2-phenyl-5-(1H-pyrazol-1-yl)-3H-imidazo[4,5-b]pyridin-3-yl)-2,3-dihydro-1H-inden-1-yl)amino)piperidin-1-yl)prop-2-en-1-one] | 0.0177 |  | 0.0903 |  |  |
| C=CC(=O)N1CCC(N[C@H]2CCc3cc(-n4c(-c5cccnc5N)nc5ccc(-n6cccn6)nc54)ccc32)CC1CC#N (single isomer, unassigned) [Example 339, 2-((2*,4*)-1-acryloyl-4-(((S)-5-(2-(2-aminopyridin-3-yl)-5-(1H-pyrazol-1-yl)-3H-imidazo[4,5-b]pyridin-3-yl)-2,3-dihydro-1H-inden-1-yl)amino)piperidin-2-yl)acetonitrile] | 0.0327 |  | 0.0788 |  |  |
| C=CC(=O)N1CCC(N[C@@H]2c3c(F)cc(-n4c(-c5cccnc5N)nc5ccc(-n6cccn6)nc54)cc3CC2F)CC1 (single isomer, unassigned) [Example 342, 1-(4-(((1R,2*)-5-(2-(2-aminopyridin-3-yl)-5-(1H-pyrazol-1-yl)-3H-imidazo[4,5-b]pyridin-3-yl)-2,7-difluoro-2,3-dihydro-1H-inden-1-yl)amino)piperidin-1-yl)prop-2-en-1-one] | 0.0239 |  | 0.194 |  |  |
| C=CC(=O)N1CCN(CC2CCc3cc(-n4c(-c5cccnc5N)nc5ccc(-n6cccn6)nc54)ccc32)CC1 (centres unmarked) [Example 174, 1-(4-((5-(2-(2-aminopyridin-3-yl)-5-(1H-pyrazol-1-yl)-3H-imidazo[4,5-b]pyridin-3-yl)-2,3-dihydro-1H-inden-1-yl)methyl)piperazin-1-yl)prop-2-en-1-one] | 0.00846 |  |  | 0.089 | 0.0655 |
| C=CC(=O)N1CCC(N[C@H]2CCc3cc(-n4c(-c5cccnc5N)nc5cc(-c6cccnc6)cnc54)ccc32)CC1 [Example 190, (S)-1-(4-((5-(2-(2-aminopyridin-3-yl)-6-(pyridin-3-yl)-3H-imidazo[4,5-b]pyridin-3-yl)-2,3-dihydro-1H-inden-1-yl)amino)piperidin-1-yl)prop-2-en-1-one] | 0.0994 |  |  | 1.32 | 0.735 |
| C=CC(=O)N1CCC(N[C@H]2CCc3cc(-n4c(-c5cccnc5N)nc5cc(-c6ccncc6)cnc54)ccc32)CC1 [Example 191, (S)-1-(4-((5-(2-(2-aminopyridin-3-yl)-6-(pyridin-4-yl)-3H-imidazo[4,5-b]pyridin-3-yl)-2,3-dihydro-1H-inden-1-yl)amino)piperidin-1-yl)prop-2-en-1-one] | 0.221 |  |  | 3.37 | 1.25 |
| C=CC(=O)N1CCC(N[C@H]2CCc3cc(-n4c(-c5cccnc5N)nc5cc(-n6cccn6)cnc54)ccc32)CC1 [Example 217, 1-(4-{[(1S)-5-[2-(2-aminopyridin-3-yl)-6-(pyrazol-1-yl)imidazo[4,5-b]pyridin-3-yl]-2,3-dihydro-1H-inden-1-yl]amino}piperidin-1-yl)prop-2-en-1-one] | 0.321 |  |  | 3.47 | 1.87 |
| C=CC(=O)N1CCc2cccc(C(=O)N[C@H]3CCc4cc(-n5c(-c6cccnc6N)nc6ccc(-n7cccn7)nc65)ccc43)c2C1 [Example 235, (S)-2-acryloyl-N-(5-(2-(2-aminopyridin-3-yl)-5-(1H-pyrazol-1-yl)-3H-imidazo[4,5-b]pyridin-3-yl)-2,3-dihydro-1H-inden-1-yl)-1,2,3,4-tetrahydroisoquinoline-8-carboxamide] | 0.0126 |  |  | 0.0658 | 0.0515 |
| C=CC(=O)N1CCC(N[C@H]2CCc3cc(-n4c(-c5cccnc5N)nc5ccc(C(C)C)nc54)ccc32)CC1 [Example 242, 1-(4-{[(1S)-5-[2-(2-aminopyridin-3-yl)-5-isopropylimidazo[4,5-b]pyridin-3-yl]-2,3-dihydro-1H-inden-1-yl]amino}piperidin-1-yl)prop-2-en-1-one] | 0.0304 |  |  | 0.756 | 1.43 |
| C=CC(=O)N1CCC(N[C@H]2CCc3cc(-n4c(-c5cccnc5N)nc5cc(-c6ccccn6)cnc54)ccc32)CC1 [Example 269, 1-(4-{[(1S)-5-[2-(2-aminopyridin-3-yl)-6-(pyridin-2-yl)imidazo[4,5-b]pyridin-3-yl]-2,3-dihydro-1H-inden-1-yl]amino}piperidin-1-yl)prop-2-en-1-one] | 0.247 |  |  | 5.39 | 2.12 |
| C=CC(=O)N1CCC(N[C@@H]2CCc3cc(-n4c(-c5cccnc5N)nc5ccc(-n6cccn6)nc54)ccc3C2)CC1 [Example 295, 1-(4-{[(2R)-6-[2-(2-aminopyridin-3-yl)-5-(pyrazol-1-yl)imidazo[4,5-b]pyridin-3-yl]-1,2,3,4-tetrahydronaphthalen-2-yl]amino}piperidin-1-yl)prop-2-en-1-one] | 0.00937 |  |  | 0.0179 | 0.0235 |
| C=CC(=O)N1CCC(N[C@@H]2c3ccc(-n4c(-c5ccccc5)nc5ccc(-n6ccc(F)n6)nc54)cc3CC2F)CC1 (stereo partly drawn) [Example 332, 1-(4-(((1R,2*)-2-fluoro-5-(5-(3-fluoro-1H-pyrazol-1-yl)-2-phenyl-3H-imidazo[4,5-b]pyridin-3-yl)-2,3-dihydro-1H-inden-1-yl)amino)piperidin-1-yl)prop-2-en-1-one] | 0.0279 |  | 0.481 |  |  |
